The values below are quoted from earlier work in patent US10201577B2, “Compositions and methods for enhancing working and long-term memory support using new combination of ginkgo biloba and panax ginseng and associated components” (KEYVIEW LABS, INC., priority 2017, dated 2019).

The conditions of series [1]: in vivo, po.
Series [2] deals with T1, choline acetyltransferase (Homo sapiens, UniProt P28329).
T1 sequence (P28329 1-748): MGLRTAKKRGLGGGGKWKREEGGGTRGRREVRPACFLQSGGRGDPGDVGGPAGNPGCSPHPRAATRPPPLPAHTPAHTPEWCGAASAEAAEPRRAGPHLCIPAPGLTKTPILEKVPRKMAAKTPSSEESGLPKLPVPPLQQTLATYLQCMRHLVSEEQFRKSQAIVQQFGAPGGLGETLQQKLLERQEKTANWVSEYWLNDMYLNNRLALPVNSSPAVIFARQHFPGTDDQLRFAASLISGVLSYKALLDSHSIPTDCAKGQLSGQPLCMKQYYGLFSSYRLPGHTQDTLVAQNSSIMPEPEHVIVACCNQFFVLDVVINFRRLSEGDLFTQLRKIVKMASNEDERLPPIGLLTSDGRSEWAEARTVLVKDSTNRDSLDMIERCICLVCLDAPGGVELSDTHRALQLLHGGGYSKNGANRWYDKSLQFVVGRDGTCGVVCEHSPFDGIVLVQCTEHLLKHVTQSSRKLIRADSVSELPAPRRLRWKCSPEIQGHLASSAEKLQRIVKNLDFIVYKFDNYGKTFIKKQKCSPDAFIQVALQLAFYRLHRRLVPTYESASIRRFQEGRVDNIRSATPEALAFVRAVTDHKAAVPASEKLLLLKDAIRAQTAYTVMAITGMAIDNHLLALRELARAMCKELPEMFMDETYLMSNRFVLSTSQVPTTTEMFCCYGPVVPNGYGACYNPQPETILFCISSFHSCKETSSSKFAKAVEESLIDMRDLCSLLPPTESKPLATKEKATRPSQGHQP
The settings on record: isolated Rb1.

The test system of series [3] is acetylcholine release. The settings on record: isolated Rb1.
For series [4], the system named is long term potentiation (LTP). Particulars: in vivo.

Regarding `CC1C(=O)OC2C(O)C34C5CC(C(C)(C)C)C36C(OC(=O)C6O)OC4(C(=O)O5)C12O` (centres unmarked) [Ginkgolide B], in series [1], the elimination half-life is 4.31 ± 0.49 h and the “time of peak plasma level” value is on record as “around 2.25±0.45 hours”.

With `CC(C)=CCC[C@](C)(O[C@@H]1O[C@H](CO[C@@H]2O[C@H](CO)[C@@H](O)[C@H](O)[C@H]2O)[C@@H](O)[C@H](O)[C@H]1O)[C@H]1CC[C@]2(C)[C@@H]1[C@H](O)C[C@@H]1[C@@]3(C)CC[C@H](O[C@@H]4O[C@H](CO)[C@@H](O)[C@H](O)[C@H]4O[C@@H]4O[C@H](CO)[C@@H](O)[C@H](O)[C@H]4O)C(C)(C)[C@@H]3CC[C@]12C` [Rb1], in series [2], the choline acetyltransferase activity entry was “stimulates”. Also, the acetylcholine release result in series [3] was “stimulates”. In series [4], the “long term potentiation (LTP)” value is given as “capable of in vivo modulation”.
